Measurements taken from paper PMC2806525, “Proteinase-activated receptor-2 mediated inhibition of TNFα-stimulated JNK activation — A novel paradigm for Gq/11 linked GPCRs” (Cellular Signalling, 2010).
“Also recorded” adds a separate entry of the source.

Columns and labels:
human PAR2 [1] = molecular target: T1, human PAR2 (Homo sapiens, UniProt P55085); experiment: JNK activity, agent alone, PAR2 NCTC2544 cells (clone G); type: cell-based; settings: higher concentrations, alone; not shown
T1 construct: expressed in transfected cells
T1 sequence (P55085 26-397): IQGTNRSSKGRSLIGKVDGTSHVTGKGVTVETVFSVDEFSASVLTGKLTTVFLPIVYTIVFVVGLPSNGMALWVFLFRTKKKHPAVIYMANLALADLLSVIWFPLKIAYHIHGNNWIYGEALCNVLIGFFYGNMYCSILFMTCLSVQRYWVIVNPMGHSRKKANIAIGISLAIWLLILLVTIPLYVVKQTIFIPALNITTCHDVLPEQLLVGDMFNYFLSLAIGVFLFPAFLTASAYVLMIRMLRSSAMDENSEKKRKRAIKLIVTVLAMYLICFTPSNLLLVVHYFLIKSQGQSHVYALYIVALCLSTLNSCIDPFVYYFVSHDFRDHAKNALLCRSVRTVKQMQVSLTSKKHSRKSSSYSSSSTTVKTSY
Procedure: (§1) Human skin epithelial cells NCTC2544 were maintained in M199 medium with Earl's salt supplement, 10% (v/v) foetal calf serum, L-glutamine (27 µg/ml), penicillin (250 U/ml), and streptomycin (25 mg/ml). NCTC2544 cells stably expressing human PAR2 (clone G) were maintained in complete M199 medium containing 400 μg/ml of Geneticin for selection pressure and passaged using Versene (2% EDTA/PBS). EAhy-926 cells were produced by hybridizing human umbilical vein endothelial cells (HUVECs) with the epithelial cell line A549 [27] and maintained in Dulbecco's Modified Eagle's Medium (DMEM) supplemented with 10% foetal calf serum (FCS), hypoxanthine/aminopterin/thymidine (HAT supplement), penicillin (250 U/ml) and streptomycin (25 mg/ml), and cells were passaged using Versene.
To measure JNK activity, cells were stimulated as appropriate and the reaction terminated by rapid aspiration and the addition of ice-cold PBS. The cells were solubilised in 20 mM HEPES buffer, pH 7.7, containing 50 mM NaCl, 0.1 mM EDTA, 0.1 mM Na3VO4, 0.1 mM PMSF, 10 mg/ml aprotinin, 10 mg/ml leupeptin, and 1% (w/v) Triton X-100. Lysates were clarified by centrifugation for 5 min at 13,000 rpm and equal amounts of protein were incubated with 20 μg of GST-c-Jun-(5–89) immobilized on glutathione-Sepharose at 4 °C for 3 h. […] Phosphorylation of GST-c-Jun was then determined by autoradiography. […]
Fig. 4 Concentration response effects of PAR2 peptides for activation of JNK and inhibition of TNFα-stimulated JNK. PAR2 expressing NCTC2544 cells (clone G) were incubated with increasing concentrations of SLIGKV-OH or 2f-LIGKV-OH for 30 min and assayed for JNK activity (Panel B) or stimulated for a further 30 min with TNFα (+) before JNK activity was assessed (Panel A). Samples were assessed for JNK activity as outlined in the Methods section. Gels from JNK assays were quantified (Panel C). Each value represents the mean ± s.e.m from at least 4 experiments and data was quantified by densitometry.

human PAR2 [2] = molecular target: T1, human PAR2; experiment: Reversal by PAR2 antagonist of SLIGKV-OH-mediated inhibition of TNFα-stimulated JNK, PAR2 NCTC2544 cells; type: cell-based; settings: 10 μM K14585 30 min, SLIGKV-OH 100 μM 30 min, then TNFα
Procedure: as §1
(§2) To measure JNK activity, cells were stimulated as appropriate and the reaction terminated by rapid aspiration and the addition of ice-cold PBS. The cells were solubilised in 20 mM HEPES buffer, pH 7.7, containing 50 mM NaCl, 0.1 mM EDTA, 0.1 mM Na3VO4, 0.1 mM PMSF, 10 mg/ml aprotinin, 10 mg/ml leupeptin, and 1% (w/v) Triton X-100. Lysates were clarified by centrifugation for 5 min at 13,000 rpm and equal amounts of protein were incubated with 20 μg of GST-c-Jun-(5–89) immobilized on glutathione-Sepharose at 4 °C for 3 h. Beads were then washed three times in solubilisation buffer and twice in 25 mM HEPES buffer, pH 7.6, containing 20 mM β-glycerophosphate, 0.1 mM NaV3O4, and 2 mM dithiothreitol. Precipitates were then incubated with the same buffer containing 25 μM/0.5 μCi of ATP/[γ-^32P] ATP in a final volume of 30 µl at 30 °C for 30 min. The reactions were terminated by the addition of 4× SDS-sample buffer and aliquots of each sample subjected to electrophoresis on 11% SDS-polyacrylamide gel electrophoresis. Phosphorylation of GST-c-Jun was then determined by autoradiography.
Fig. 3 Inhibition of TNFα-stimulated JNK activity is dependent upon PAR2 activation. […] Samples were assessed for JNK activity or phospho-JNK content as outlined in the Methods section. […]

p38 MAP kinase = settings: higher concentrations, ref [37]; cited from earlier work
Source text: Whilst this present study focuses on two agonist effects it is the first study to raise this potential when examining JNK activation. This model was also supported when examining the effect of the novel PAR2 antagonist K-14585 [33]. […] Taken together, these findings indicate two distinct agonist-directed signalling pathways driven by SLIGKV-OH, one dependent upon ...

PKC [3] = experiment: TNFα-stimulated JNK activity, PKC activator / PKC inhibitor, PAR2 NCTC2544 cells; type: cell-based, human; settings: 100 nM PMA 30 min, TNFα 10 ng/ml 30 min
Procedure: as §1, §2
Where experimental data is shown as a blot, this represents one of at least 3 experiments and data represents the mean ± s.e.m. Statistical analysis was by one-way ANOVA with Dunnett's post test (*P < 0.05, **P < 0.01).
Fig. 5 Pharmacological blockade of protein kinase C reverses PAR2 mediated inhibition of TNFα-stimulated JNK activation. PAR2 expressing NCTC2544 cells (clone G) were pre-incubated with increasing concentrations of GF109203X (GFX) for 30 min then incubated for a further 30 min with 100 nM PMA (Panel A) or 30 nM trypsin (Panel B) prior to stimulation for a further 30 min with TNFα(+) (10 ng/ml). Samples were assessed for JNK activity (Panels A and B) or phospho-JNK levels (Panel D) as outlined in the Methods section. Gels from JNK activity assays were quantified by densitometry (Panel C). Each value represents the mean ± s.e.m from at least 4 experiments. ⁎⁎P < 0.01 compared to TNFα and trypsin stimulated.

PKC [4] = experiment: TNFα-stimulated JNK phosphorylation, PKC activator / PKC inhibitor, PAR2 NCTC2544 cells; type: cell-based, human; settings: 100 nM PMA
Procedure: as §1
(§3) Proteins were separated by 10% SDS–PAGE and transferred onto nitrocellulose. The membranes were blocked for non-specific binding for 2 h in 2% BSA (w/v) diluted in NATT buffer (50 mM Tris–HCl, 150 mM NaCl, 0.2% (v/v) Tween-20). […]
Fig. 5 Pharmacological blockade of protein kinase C reverses PAR2 mediated inhibition of TNFα-stimulated JNK activation. […] Samples were assessed for JNK activity (Panels A and B) or phospho-JNK levels (Panel D) as outlined in the Methods section. Gels from JNK activity assays were quantified by densitometry (Panel C). […]

TNFR1 = settings: ref [42,50]; cited from earlier work
Source text: Upon activation TNFR1 associates with a number of proteins including TRADD, RIP, TRAF2, MADD and FADD [46]. Formation of this complex at the membrane allows TNFα to mediate an array of different signalling events, such as induction of apoptosis through the FADD-caspase arm or activation of MAP kinase and NFκB signalling via TRAF2. For example, TRAF2 contains a conserved C-terminal region termed the TRAF domain, which interacts with TRADD and an N-terminal ring finge ...

Gq/11 [5] = experiment: Reversal by Gq/11 inhibitor of PAR2 mediated inhibition of TNFα-stimulated JNK activity, PAR2 NCTC2544 cells; type: cell-based, human; settings: increasing concentrations YM254890 30 min, SLIGKV-OH 100 μM 30 min, TNFα 10 ng/ml 30 min
Procedure: as §1
To measure JNK activity, cells were stimulated as appropriate and the reaction terminated by rapid aspiration and the addition of ice-cold PBS. […] Phosphorylation of GST-c-Jun was then determined by autoradiography. […]
(§4) Fig. 6 Gq/11 is essential for PAR2 mediated inhibition of JNK activation by TNFα. […] Samples were assessed for phospho-JNK levels (Panels A and D) or JNK activity (Panel B) as outlined in the Methods section. Gels from JNK activity assays were quantified by densitometry (Panel C). […]

Gq/11 [6] = experiment: Reversal by Gq/11 inhibitor of PAR2 mediated inhibition of TNFα-stimulated JNK phosphorylation, PAR2 NCTC2544 cells; type: cell-based, human; settings: 100 nM YM254890 30 min, SLIGKV-OH 100 μM 30 min, TNFα 10 ng/ml 30 min
Procedure: as §1
as §3, with “Tween-20). The blots were then incubated overnight with 50 ng/ml primary antibody diluted in 0.2% BSA (w/v) in NATT buffer.” for “Tween-20).”
as §4

TNFR1/TRADD = TNFR1/TRADD complex formation (TNFR1 immuno-precipitation, TRADD immuno-blot), PAR2 expressing cells; type: cell-based, human; settings: 100 nM YM254890 or 3 μM GF109203X 30 min, peptide 100 μM 30 min, TNFα 10 ng/ml 30 min
Procedure: as §1
Proteins were separated by 10% SDS–PAGE and transferred onto nitrocellulose. The membranes were blocked for non-specific binding for 2 h in 2% BSA (w/v) diluted in NATT buffer (50 mM Tris–HCl, 150 mM NaCl, 0.2% (v/v) Tween-20). The blots were then incubated overnight with 50 ng/ml primary antibody diluted in 0.2% BSA (w/v) in NATT buffer. The blots were washed with NATT buffer for 90 min and incubated with HRP-conjugated secondary antibody (20 ng/ml in 0.2% BSA (w/v) diluted in NATT buffer) for 2 h. After a further 90 min wash, the blots were subjected to ECL reagent and exposed to Kodak X-ray film.
For immuno-precipitation of TNFR1, equal amounts of pre-cleared cell lysates were incubated in Tris–HCl buffer, pH 7.4, containing 50 mM NaCl, 1 mM EDTA, 1 mM EGTA, 1% (w/v) Triton X-100, and 0.5% (w/v) Nonidet P-40, with 2 μg TNFR1 antibody, pre-coupled to protein G, for 3 h. Lysates were recovered by sequential washes in solubilisation buffer and in the same buffer lacking detergents. Precipitates were assessed for TRADD or RIP content using Western blotting.
Fig. 7 PAR2 mediated TNFR1 adapter protein disruption in PAR2 expressing cells. In Panel A, cells were pre-treated with peptide (100 μM) or vehicle prior to stimulation with TNFα (10 ng/ml) for 30 min. Lysates were immuno-precipitated for TNFR1 and immuno-blotted for TRADD and/or RIP, as outlined in the Methods section. In Panel B cells were pre-treated with 100 nM YM254890 or 3 μM GF109203X for 30 min prior to pre-treatment with peptide (100 μM), for 30 min, then incubated for a further 30 min with TNFα (10 ng/ml). TNFR1 immuno-precipitates were immuno-blotted for TRADD. Each gel is representative of at least three experiments.

Gq/11 [7] = settings: ref [29]; cited from earlier work
Source text: Thus, DAG derived from Gq/11 activation is likely to drive PKC activation and subsequent inhibition of TNFα stimulated JNK activity. Previously, we have shown that Gq/11 plays a positive role in the regulation of PAR2 mediated NFκB p ...

Molecule: NCCCC[C@H](NC(=O)CNC(=O)Nc1ccc2c(c1)c(CN1CCCC1)cn2Cc1c(Cl)cccc1Cl)C(=O)N[C@@H](Cc1ccccc1)C(=O)NC(c1ccccc1)c1ccccc1 [K-14585]
- JNK activation by K14585 alone (human PAR2 [1]): able to activate both JNK
- reversal of SLIGKV-OH-mediated JNK inhibition (words) (human PAR2 [2]): able to reverse the inhibition of JNK; also recorded: able to reverse PAR2 mediated inhibition of TNFα signalling
- reversal of SLIGKV-OH-mediated JNK inhibition (words) (human PAR2 [2]; listed as K14585): inhibition was reversed by pre-incubation
- reversal of SLIGKV-OH-mediated JNK inhibition (words) (human PAR2 [2]; listed as K14858): reversed
- p38 MAP kinase activation by K14585 alone (p38 MAP kinase): able to activate both JNK (not shown) and p38 MAP kinase

Molecule: CCCCCCCCCCCCCC(=O)O[C@@H]1[C@@H](C)[C@@]2(O)[C@@H](C=C(CO)C[C@]3(O)C(=O)C(C)=C[C@@H]23)[C@@H]2C(C)(C)[C@]12OC(C)=O [PMA]
- effect of PKC activator on TNFα-stimulated JNK activity (PKC [3]): mimicked the inhibitory effect of SLIGKV-OH; also recorded: mimic the inhibitory effect of PAR2 activation; also recorded: abolishing both JNK activity and phosphorylation
- effect of PKC activator on TNFα-stimulated JNK phosphorylation (PKC [4]): abolishing both JNK activity and phosphorylation
- disruption of TNFR1 binding (TNFR1): disrupt TNFR1 binding

Molecule: YM254890
- reversal of PAR2 mediated inhibition of JNK activity by Gq/11 inhibitor (Gq/11 [5]): almost complete abrogation of peptide mediated inhibition; also recorded: complete reversal of PAR2 mediated JNK inhibition
- reversal of PAR2 mediated inhibition of JNK activity by Gq/11 inhibitor (Gq/11 [5]; listed as YM25480): reversed PAR2 mediated inhibition
- reversal of PAR2 mediated inhibition of JNK phosphorylation by Gq/11 inhibitor (Gq/11 [6]): almost complete abrogation of peptide mediated inhibition of TNFα stimulated JNK phosphorylation
- reversal of PAR2 mediated disruption of TNFR1/TRADD complex (TNFR1/TRADD): effectively reversed PAR2 mediated disruption
- reversal of PAR2 mediated disruption of TNFR1/TRADD complex (TNFR1/TRADD; listed as YM25480): reversed
- inhibition of trypsin and peptide mediated [^3H]IP accumulation (Gq/11 [7]): very effective inhibitor
